In patent publication US20250257062A1, “GLP-1R Agonist and Therapeutic Method Thereof” (Ascletis Pharma (China) Co., Limited, priority 2023, published 2025):

Columns and labels:
[1] = target: hGLP-1R (Homo sapiens (Human), UniProt P43220); experiment: hGLP-1R cAMP assay (agonist cAMP stimulation, Flp-In-293-GLP1R cells); format: cell-based; conditions: 30 min at 37° C.
Description: hGLP-1R cAMP Assay • 1. Cell line and reagent preparation • 1) Cell line: Flp-In-293-GLP1R • 2) Medium: DMEM+10% FBS+1×Penicillin-Streptomycin+200 μg/mL HB • 3) Test buffer: 1×HBSS+20 mM HEPES+0.1% BSA+500 μM IBMX • 2. Agonist test • a) Flpin-293-GLP1R cells were incubated in a 384-well assay plate (6007680-50, PE) using complete medium with 2,000 cells per well. • b) Prepared a 4× […] working solution with assay buffer. • c) Added 5 μL of 4× Compound Working Solution to the cell plate and incubated at 37° C. for 30 minutes. • d) Diluted Eu-cAMP tracer (1/50) with lysis buffer and added 10 μl/well to the assay plate. • e) Diluted Ulight-anti-cAMP (1/150) with lysis buffer and added 10 μl/well to the assay plate. • f) Incubated at constant temperature for 1 hour. • g) Read the plate on Envision 2105 plate reader at […]. • 3. Data Analysis • 3.1 The formula for calculating % Activity was as follows
[formula] • 3.2 Calculate EC50 and plot the effect-dose curve for cmpds:
[formula] • X: logarithm of agonist concentration; Y: percentage activity.

[2] = Single-dose oral administration pharmacokinetic study in SD rats; format: in vivo; conditions: Sprague-Dawley, rat, 5 mg/kg, plasma; for Cmax: male SD rats; for AUC(0-t): male, po, exposure over 0-24 hours
Description: Single-dose oral administration pharmacokinetic (PK) studies in Sprague-Dawley (SD) rats Pharmacokinetic (PK) studies after a single-dose oral administration for compounds.
Protocol: Animals: Male Sprague-Dawley (SD) rats; Solvent: Solutol: PEG400: Tween80: Saline=10:40:2:48 (v/v/v/v); Dose: 5 mg/kg; Dosing concentration: 0.5 mg/mL in the solvent; Dosing volume: 10 mL/kg. Sample Collection: At each time point, approximately 0.15 mL of blood was drawn from the jugular vein sinus, and the collected whole blood was placed in an anticoagulant tube containing EDTA-K2. After collecting blood samples, they were processed with protein precipitation and then analyzed by LC-MS/MS.

hGLP-1R, sequence (P43220 24-463): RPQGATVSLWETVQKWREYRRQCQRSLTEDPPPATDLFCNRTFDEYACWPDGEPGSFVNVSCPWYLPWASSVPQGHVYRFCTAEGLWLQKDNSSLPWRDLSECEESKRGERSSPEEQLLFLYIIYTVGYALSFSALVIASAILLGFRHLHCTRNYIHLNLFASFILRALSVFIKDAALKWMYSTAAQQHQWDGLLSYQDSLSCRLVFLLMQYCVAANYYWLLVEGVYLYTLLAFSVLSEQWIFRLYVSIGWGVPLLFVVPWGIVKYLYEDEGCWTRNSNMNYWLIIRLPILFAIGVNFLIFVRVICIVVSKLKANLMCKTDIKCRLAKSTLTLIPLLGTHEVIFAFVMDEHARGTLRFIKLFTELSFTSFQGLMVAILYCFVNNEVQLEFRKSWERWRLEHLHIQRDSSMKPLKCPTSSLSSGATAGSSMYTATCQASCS

EC50 [1] | Cmax [2] | AUC(0-t) [2] | SMILES
0.02 nM | 5610 ng/mL | 71200 ng·h/mL | C[C@H]1c2c(nn(-c3ccc(F)c(C4CC4)c3)c2-n2ccn(-c3ccc4c(cnn4C4CC4)c3F)c2=O)CCN1C(=O)c1cc2cc(C3CCOCC3)ccc2n1[C@@]1(c2noc(=O)[nH]2)C[C@@H]1C [Compound 33]
0.015 nM | 3210 ng/mL | 29600 ng·h/mL | C[C@H]1c2c(nn(-c3ccc(F)c4c3CCC4)c2-n2ccn(-c3ccc4c(cnn4C4CC4)c3F)c2=O)CCN1C(=O)c1cc2cc(C3CCOCC3)ccc2n1[C@@]1(c2noc(=O)[nH]2)C[C@@H]1C [Compound 45]
0.028 nM |  |  | C[C@H]1c2c(nn(-c3ccc(F)c(C4CC4)c3)c2-n2ccn(-c3ccc(CP(C)(C)=O)cc3)c2=O)CCN1C(=O)c1cc2cc(C3CCOCC3)ccc2n1[C@@]1(c2noc(=O)[nH]2)C[C@@H]1C [Compound 51]
